This note sets out measurements from PMC11096368, “Transcriptomic signature, bioactivity and safety of a non-hepatotoxic analgesic generating AM404 in the midbrain PAG region” (Scientific Reports, 2024).

Molecules are shown by their SMILES. Entries after “also recorded” stand apart in the source; their conditions may differ. Where two headings read alike, the source gives them in different places.

In general, ED50 refers to the dose at which the effect has come halfway, by size or by number of responders.

Holding throughout (assay type): in vivo
The nature of data set [1]: LC–MS/MS identification of serum NAPQI. To be noted: 600 mg/kg, CD-1 mice. The procedure:
[…] (NAPQI) was extracted from the serum by adding 3 volumes of ethyl-acetate to 1 volume of serum and storing them on ice for 30 min, followed by centrifugation at 3000g for 30 min. Afterward, the supernatant was transferred into mass spectrometry vials and dried under N2 gas. The serum was then washed with another 3 volumes of ethyl-acetate, and the supernatant was added back to the same mass spectrometry vial, followed by evaporation under a stream of N2 gas. The sample was re-suspended with 50 µl of 1:1 MeOH:H2O for LC–MS/MS experimentation. The mass spectrophotometer was operated in multiple reaction monitoring (MRM) mode using positive ion electrospray. NAPQI was detected by monitoring the m/z transition 150.3 → 108.1. Pure NAPQI analytical standard (10 ng/mL) obtained from Cayman Chemical (Ann Arbor, MI) was used to characterize the full fragmentation pattern of NAPQI and determine the likely fragments.

Data set [2] deals with FAAH, CORO2A, and RPL7L1 expression. In words: Single-cell RNA sequencing of midbrain PAG in the CFA model. The settings on record: 100 mg/kg, 1 h, CFA rats.
Method: Subsequently, we endeavored to explore the single-cell transcriptome of the eVF rat mid-brain PAG region to further define the mechanisms of action (MOA) of chronic inflammatory pain and, ultimately, SRP-001- and ApAP-mediated pain modulation. Left hind paws of Sprague Dawley rats were injected with 150 µl of 50% complete Freund’s adjuvant (CFA), freshly diluted with sterile saline on the day of administration, to induce conspicuous long-standing inflammatory pain in the rats’ hind paws, along with mechanical hyperalgesia tested using eVF.to induce local inflammation and a chronic pain state. We dosed the rats with ApAP or SRP-001 (100 mg/kg), and after 1 h, they were euthanized to dissect the PAG from flash-frozen brains for 10xGenomics single-nuclei RNA library preparation (Fig. 4a).
For cell nuclei isolation from the midbrain PAG, they were flash-frozen, dissected (by a cryotome), minced into small pieces, homogenized, filtered through 70 μ strainer and centrifuged. ReadiDrop 7-AAD cell viability dye (Bio-Rad) added, and flow sorted the live (7-AAD positive) nuclei in a BioRad Cell Sorter S3e using purity mode. Nuclei were counted using Nexcelom automated Cellometer with acridine orange/propidium iodide (AOPI) stain, and the Nuclei Stock Concentration used so that 10,000 nuclei could be targeted for each sample. […]
The subject of data set [3] is CD1 or C57BL/6 mice. In words: Cold stimulation tail flick somatic pain assay. To be noted: for ED50: Mus musculus, equimolar dosing; for Analgesia in cold tail-flick assay: high dose (100 mg/kg), all experimental cohorts. The source says: (§1) The investigators were blinded till the completion of all the experiments. To ensure objectivity, investigators were blinded for the acetic acid and tail flick experiments. In the CFA/von Frey and Hargreaves assays, one investigator did the drug pre-treatments, and another investigator at another location who was not aware of the treatments conducted the behavioral testing. Moreover, these studies used the eVF device that electronically registers the grams of force necessary to elicit paw withdrawal, eliminating bias that confounded older versions of this test in which an investigator used a series of individual von Frey microfilaments to determine paw withdrawal thresholds. Six separate experimenters were involved in the data acquisition for behavioral testing, and another separate investigator performed all the statistical analyses using GraphPad Prism Version 9.1.2. Statistical significance was determined by p < 0.05; one-way ANOVA followed by Sidak’s multiple comparisons post hoc test. Mixed-gender experiments were powered to test for gender effects, and different ages of rodents were also included for the experiments – young (2 months) and aged (20 months) to tease out whether there are any effects of age-related changes in nociceptive sensitivity under naïve, and inflammatory pre-clinical rodent pain models. For the aged rats and mice, we could only obtain male Sprague–Dawley rats and male C57BL/6 mice of 20 months old from all commercial animal vendors and from the National Institute of Aging (NIA). So, only these rodents were used for the older animal experimental cohort. Old female rats and mice were not available at the time when these experiments were conducted. For ED50 calculation, dose–response curves were calculated with regression analysis and log transformation using GraphPad Prism 9.1.2.
Half of the tail was immersed in ice-cold water maintained at 4 °C. For the tail-flick assays, we used n = 70 aged male mice, n = 90 young male mice, and n = 120 young female mice. Based on the availability of mice at the time of the experiments, different numbers of animals were assigned to different cohorts of experimental animals. Tail flick assay experiments were conducted on an open bench in a dedicated room at the LSUHSC New Orleans Neuroscience Center of Excellence vivarium. Mice were allowed to acclimate to the laboratory environment for 1 h prior to testing. To restrain the mice for the test, disposable plastic 50 mL screw-capped conical centrifuge tubes were cut at the tip to create a 0.5 cm opening to allow the mice to breathe freely. Another 0.5 cm opening was cut into the cap to allow access of the tail to the water bath. A 500 mL glass beaker was filled with 450 mL of ice-cold distilled water maintained at 4 °C with the addition of ice and determined with a glass thermometer. Mice were held over the opening of the water bath, and their tails submerged approximately halfway into the water. The nociceptive threshold was taken as the latency until the mice flicked their tail tip or removed the tail. The time from immersion to the attempted tail tip removal was measured to 1/10th of a sec with a digital laboratory timer. To minimize damage to the tail, a 60-s cut-off was utilized. […] Injections were at doses of 32 mg/kg and 100 mg/kg. 30 min post-drug administration tail-flick/withdrawal latency was measured.

For another data set, the system named is Sprague–Dawley rats. The data set is described as follows: CFA inflammatory pain / von Frey with electronic detection (eVF). The settings on record: for Threshold for paw withdrawal, CFA-injected paw: young male rats, 18 g after CFA; for Threshold for paw withdrawal, CFA-injected left hind paw: young female and aged male rats (Supplementary Fig. 3), from 25 g; for ED50: Rattus norvegicus, equimolar dosing.
From the text: as §1
In this model of mechanonociception, one hind paw at a time is stimulated with an electronic von Frey (eVF) filament (noxious source) until the animal retracts the paw from the mechanical stimulus. von Frey tests were conducted in a dedicated room at the LSUHSC New Orleans Neuroscience Center of Excellence vivarium. Rats were acclimated to their environment for 2 days for 30 min/day prior to testing. To obtain eVF pressure recordings, each animal was placed in an individual plastic observation compartment on a perforated metallic grid platform, which provided access to the plantar surface of the hind paws. After acclimation to the environment for 30 min, mechanical hypersensitivity was assessed by stimulating the mid-plantar area of each hind paw with a rigid tip von Frey filament attached to the eVF meter (Ugo Basile 38,450) until animals withdrew the paw from the filament. The withdrawal threshold was defined as the average force/pressure (g) required for the rat to withdraw the stimulated paw. A brisk withdrawal of the paw (often followed by a sustained retraction and/or licking) was considered a positive response, but paw withdrawals due to locomotion or weight shifting were not counted. The von Frey studies were conducted with an eVF device that electronically registers the grams of force necessary to elicit paw withdrawal in order to eliminate bias that confounded previous older versions of this test. Baseline withdrawal thresholds of both the right and left paws were recorded, and animals were assigned to different treatment groups so that each group had approximately equal withdrawal threshold averages in both paws. After baseline testing, treated animals received subcutaneous plantar injection (150 μl) of 50% CFA diluted and freshly mixed in sterile (0.9%) saline into the left hind paw unilaterally, while control animals received a plantar injection (150 µl) of 0.9% NaCl into their left hind paw. CFA induces inflammation, resulting in a left hind paw that is hypersensitive to mechanical stimulus, while the right hind paw serves as a within-subject baseline for each animal. […]

Data set [4] concerns CD1 or C57BL/6 mice. The data set is described as follows: Acetic acid-induced abdominal writhing assay (visceral pain). The settings on record: for ED50: Mus musculus, equimolar dosing; for Analgesia in acetic acid-induced writhing assay: high dose (100 mg/kg), all experimental cohorts.
From the text: as §1
In this model of visceral pain, abdominal contraction (writhing), in which contraction of the abdominal muscles and stretching of the hind limbs is induced in mice in response to an ip injection of 0.4% acetic acid at a dose of 10 mL/kg 25 min after drug administration, is assessed. Specifically, the number of writhes is counted for 10 min, beginning 5 min after acetic acid injection. […] CD1 (young male and female) or C57BL/6 (aged male) mice were used. For the abdominal writhing assays, we used n = 35 aged male mice, n = 70 young male mice, and n = 70 young female mice.
Background: Writhing tests count abdominal constrictions after an irritant is injected.

Setting [5] is: read-out: ED50 Tail Flick Assay (Mice), Aged (Male).
Where [6] appears, read: read-out: ED50 Tail Flick Assay (Mice), Young (Female).
Setting [7] is: read-out: ED50 Tail Flick Assay (Mice), Young (Male).
Setting [8] is: 100 mg/kg PO (cumulative dosing).
[9] abbreviates: read-out: ED50 von-Frey Assay (Rats), Aged (Male).
Where [10] appears, read: read-out: ED50 von-Frey Assay (Rats), Young (Female).
Setting [11] is: read-out: ED50 von-Frey Assay (Rats), Young (Male).
[12] abbreviates: read-out: ED50 Acetic acid writhing Assay (Mice), Aged (Male).
Setting [13] is: read-out: ED50 Acetic acid writhing Assay (Mice), Young (Female).
[14] abbreviates: read-out: ED50 Acetic acid writhing Assay (Mice), Young (Male).

For the compound `CCN(CC)C(=O)c1ccccc1S(=O)(=O)NCC(=O)Nc1ccc(O)cc1` [SRP-001, N,N-diethyl-2-[[2-(4-hydroxyanilino)-2-oxo-ethyl]sulfamoyl]benzamide], the “Formation of the hepatotoxic metabolite NAPQI (serum)” value in data set [1] is on record as “lack of formation of the toxic quinonimine metabolite NAPQI; also recorded: does not produce the hepatotoxic metabolite; also recorded: lack of production of NAPQI”. For the same compound, the “Expression of FAAH, CORO2A, and RPL7L1 in PAG (scRNAseq)” value in data set [2] was “Downregulation”. Moreover, the 50% effective dose (ED50) was determined as 81.6 µmol/kg with CD1 or C57BL/6 mice [3] (setting [5]); 44.9 µmol/kg in the data set with CD1 or C57BL/6 mice [3] (setting [6]); 60 µmol/kg in the data set on CD1 or C57BL/6 mice [3] (setting [7]); 454 µmol/kg with Sprague–Dawley rats (setting [9]); 121 µmol/kg in the data set with Sprague–Dawley rats (setting [10]); 190 µmol/kg with Sprague–Dawley rats (setting [11]). In addition, the 50% effective dose (ED50) is 22.1 µmol/kg in the data set with CD1 or C57BL/6 mice [4] (setting [12]), 237 µmol/kg with CD1 or C57BL/6 mice [4] (setting [13]) and 31.1 µmol/kg with CD1 or C57BL/6 mice [4] (setting [14]). Moreover, the “Analgesia in cold tail-flick assay” value with CD1 or C57BL/6 mice [3] is on record as “significant analgesia”. Moreover, the “Threshold for paw withdrawal, CFA-injected paw” value is listed as 40 g in the data set on Sprague–Dawley rats (32 mg/kg PO) and 55 g in the data set with Sprague–Dawley rats (setting [8]). For the same compound, the “Threshold for paw withdrawal, CFA-injected left hind paw” value is listed as 32 g with Sprague–Dawley rats (32 mg/kg) and 40 g in the data set with Sprague–Dawley rats (100 mg/kg). In the data set on CD1 or C57BL/6 mice [4], the “Analgesia in acetic acid-induced writhing assay” value was “significant analgesia”.

Regarding `CC(=O)Nc1ccc(O)cc1` [ApAP, acetaminophen, reference compound], the “Formation of the hepatotoxic metabolite NAPQI (serum)” value in data set [1] was “a NAPQI peak is seen; also recorded: significantly enhanced; also recorded: NAPQI peak appears”. Also, the 50% effective dose (ED50) in the data set with CD1 or C57BL/6 mice [3] (setting [5]) stood at 281 µmol/kg; with CD1 or C57BL/6 mice [3] (setting [6]), 70.3 µmol/kg; in the data set with CD1 or C57BL/6 mice [3] (setting [7]), 71.8 µmol/kg; with Sprague–Dawley rats (setting [9]), 358 µmol/kg; in the data set with Sprague–Dawley rats (setting [10]) it was 292 µmol/kg; in the data set on Sprague–Dawley rats (setting [11]), 574 µmol/kg. Further, the 50% effective dose (ED50) is 71.6 µmol/kg with CD1 or C57BL/6 mice [4] (setting [12]), 661 µmol/kg in the data set on CD1 or C57BL/6 mice [4] (setting [13]) and 75.8 µmol/kg in the data set with CD1 or C57BL/6 mice [4] (setting [14]). Moreover, in the data set with CD1 or C57BL/6 mice [3], the “Analgesia in cold tail-flick assay” value is “significant analgesia”. The “Threshold for paw withdrawal, CFA-injected paw” value in the data set with Sprague–Dawley rats (32 mg/kg PO) came to 34 g; in the data set on Sprague–Dawley rats (setting [8]), 50 g. The “Analgesia in acetic acid-induced writhing assay” value in the data set on CD1 or C57BL/6 mice [4] is “significant analgesia”.
